Like-named read-outs stand apart in the source and are kept apart here. Square brackets hold non-standard residues; d marks the D form. Peptide text beside a SMILES is read from it. * marks the point of attachment. dHis(τ-Bn) = N[C@H](Cc1cn(Cc2ccccc2)cn1)C(=O)O; d2Nal = N[C@H](Cc1ccc2ccccc2c1)C(=O)O; pGlu = O=C1CC[C@@H](C(=O)O)N1; tBu = CC(C)(C)*
Assays:
[1] = Solubility analysis in PBS (Analysis Method B); type: physicochemical; conditions: pH 7.4
Procedure: The solubility of compounds of the invention was tested as described in the general methods. Solubility was then graded according to a rating between 1 to 5, where 1 is most soluble and 5 is least soluble.

GnRHR = target: T1, GnRHR (Homo sapiens, UniProt P30968)
T1 sequence (P30968 1-328): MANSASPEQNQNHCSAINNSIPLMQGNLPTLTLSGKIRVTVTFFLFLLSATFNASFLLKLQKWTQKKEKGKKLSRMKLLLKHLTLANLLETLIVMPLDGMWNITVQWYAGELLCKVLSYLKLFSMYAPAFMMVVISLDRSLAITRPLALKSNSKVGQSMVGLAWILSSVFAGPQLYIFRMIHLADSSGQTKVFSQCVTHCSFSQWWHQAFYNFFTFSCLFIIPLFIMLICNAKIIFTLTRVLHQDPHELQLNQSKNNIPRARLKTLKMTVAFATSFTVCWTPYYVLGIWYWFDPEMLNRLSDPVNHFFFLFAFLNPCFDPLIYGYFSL

Row | Solubility grading [1] | GNRHR Stimulation at 1 μM (GnRHR; 1000.0) [percentage] | Compound | GNRHR Stimulation at 1 μM (GnRHR; 1 μM, calcium assay, CHO-K1 cells)
1 | 1 | 105 | CCNC(=O)[C@@H]1CCCN1C(=O)[C@H](Cc1ccc(O)cc1)NC(=O)[C@H](Cc1c[nH]c2ccccc12)NC(=O)[C@@H](CC(C)C)NC(=O)[C@H](Cc1c[nH]cn1)NC(=O)[C@H](CO)NC(=O)[C@H](Cc1c[nH]c2ccccc12)NC(=O)[C@H](Cc1c[nH]cn1)NC(=O)[C@@H]1CCC(=O)N1 [Compound 50, pGlu-His-Trp-Ser-His-D-Leu-Trp-Tyr-Pro-NHEt] ([pGlu]HWSH[dL]WYP-NHEt) | –
2 | 1 | 86 | CC(C)C[C@H](NC(=O)[C@@H](Cc1c[nH]c2ccccc12)NC(=O)[C@H](Cc1c[nH]cn1)NC(=O)[C@H](CO)NC(=O)[C@H](Cc1c[nH]c2ccccc12)NC(=O)[C@H](Cc1c[nH]cn1)NC(=O)[C@@H]1CCC(=O)N1)C(=O)N[C@@H](CCCNC(=N)N)C(=O)N1CCC[C@H]1C(=O)NCC(N)=O [Compound 68, pGlu-His-Trp-Ser-His-D-Trp-Leu-Arg-Pro-Gly-amide] ([pGlu]HWSH[dW]LRPG-NH2) | –
3 | 1 | 106 | CC(C)C[C@H](NC(=O)[C@@H](Cc1ccc2ccccc2c1)NC(=O)[C@H](Cc1c[nH]cn1)NC(=O)[C@H](CO)NC(=O)[C@H](Cc1c[nH]c2ccccc12)NC(=O)[C@H](Cc1c[nH]cn1)NC(=O)[C@@H]1CCC(=O)N1)C(=O)N[C@@H](CCCNC(=N)N)C(=O)N1CCC[C@H]1C(=O)NCC(N)=O [Compound 23, pGlu-His-Trp-Ser-His-D-Nal-Leu-Arg-Pro-Gly-amide] ([pGlu]HWSH[d2Nal]LRPG-NH2) | –
4 | 2 | 118 | CCNC(=O)[C@@H]1CCCN1C(=O)[C@H](Cc1ccc(O)cc1)NC(=O)[C@H](CC(C)C)NC(=O)[C@@H](CC(C)C)NC(=O)[C@H](Cc1c[nH]cn1)NC(=O)[C@H](CO)NC(=O)[C@H](Cc1c[nH]c2ccccc12)NC(=O)[C@H](Cc1c[nH]cn1)NC(=O)[C@@H]1CCC(=O)N1 [Compound 48, pGlu-His-Trp-Ser-His-D-Leu-Leu-Tyr-Pro-NHEt] ([pGlu]HWSH[dL]LYP-NHEt) | –
5 | 2 | 95 | CC(C)C[C@H](NC(=O)[C@@H](Cc1ccc2ccccc2c1)NC(=O)[C@H](Cc1c[nH]cn1)NC(=O)[C@H](CO)NC(=O)[C@H](Cc1c[nH]c2ccccc12)NC(=O)[C@H](Cc1c[nH]cn1)NC(=O)[C@@H]1CCC(=O)N1)C(=O)N[C@@H](Cc1ccc(O)cc1)C(=O)N1CCC[C@H]1C(=O)NCC(N)=O [Compound 28, pGlu-His-Trp-Ser-His-D-Nal-Leu-Tyr-Pro-Gly-amide] ([pGlu]HWSH[d2Nal]LYPG-NH2) | –
6 | 1 | 96 | CCNC(=O)[C@@H]1CCCN1C(=O)[C@H](CCCNC(=N)N)NC(=O)[C@H](CC(C)C)NC(=O)[C@@H](Cc1cn(Cc2ccccc2)cn1)NC(=O)[C@H](Cc1c[nH]cn1)NC(=O)[C@H](CO)NC(=O)[C@H](Cc1c[nH]c2ccccc12)NC(=O)[C@H](Cc1c[nH]cn1)NC(=O)[C@@H]1CCC(=O)N1 [Compound 56, pGlu-His-Trp-Ser-His-D-Bhi-Leu-Arg-Pro-NHEt] ([pGlu]HWSH[dHis(τ-Bn)]LRP-NHEt) | –
7 | 1 | 81 | CCNC(=O)[C@@H]1CCCN1C(=O)[C@H](CCCNC(=N)N)NC(=O)[C@H](Cc1c[nH]c2ccccc12)NC(=O)[C@@H](COC(C)(C)C)NC(=O)[C@H](Cc1c[nH]cn1)NC(=O)[C@H](CO)NC(=O)[C@H](Cc1c[nH]c2ccccc12)NC(=O)[C@H](Cc1c[nH]cn1)NC(=O)[C@@H]1CCC(=O)N1 [Compound 10, pGlu-His-Trp-Ser-His-D-Ser(tBu)-Trp-Arg-Pro-NHEt] ([pGlu]HWSH[dS](tBu)WRP-NHEt) | –
8 | 2 | 111 | CCNC(=O)[C@@H]1CCCN1C(=O)[C@H](CCCNC(=N)N)NC(=O)[C@H](Cc1c[nH]c2ccccc12)NC(=O)[C@@H](CC(C)C)NC(=O)[C@H](Cc1ccc(O)cc1)NC(=O)[C@H](CO)NC(=O)[C@H](Cc1c[nH]c2ccccc12)NC(=O)[C@H](Cc1c[nH]cn1)NC(=O)[C@@H]1CCC(=O)N1 [Compound 44, pGlu-His-Trp-Ser-Tyr-D-Leu-Trp-Arg-Pro-NHEt] ([pGlu]HWSY[dL]WRP-NHEt) | –

Continued, compound first:

Row | Compound | Solubility grading [1] | GNRHR Stimulation at 1 μM (GnRHR; 1000.0) [percentage] | GNRHR Stimulation at 1 μM (GnRHR; 1 μM, calcium assay, CHO-K1 cells)
9 | CCNC(=O)[C@@H]1CCCN1C(=O)[C@H](CCCNC(=N)N)NC(=O)[C@H](Cc1c[nH]c2ccccc12)NC(=O)[C@@H](COC(C)(C)C)NC(=O)[C@H](Cc1ccc(O)cc1)NC(=O)[C@H](CO)NC(=O)[C@H](Cc1c[nH]c2ccccc12)NC(=O)[C@H](Cc1c[nH]cn1)NC(=O)[C@@H]1CCC(=O)N1 [Compound 8, pGlu-His-Trp-Ser-Tyr-D-Ser(tBu)-Trp-Arg-Pro-NHEt] ([pGlu]HWSY[dS](tBu)WRP-NHEt) | 2 | 86 | –
10 | CCNC(=O)[C@@H]1CCCN1C(=O)[C@H](Cc1ccc(O)cc1)NC(=O)[C@H](CC(C)C)NC(=O)[C@@H](Cc1cn(Cc2ccccc2)cn1)NC(=O)[C@H](Cc1ccc(O)cc1)NC(=O)[C@H](CO)NC(=O)[C@H](Cc1c[nH]c2ccccc12)NC(=O)[C@H](Cc1c[nH]cn1)NC(=O)[C@@H]1CCC(=O)N1 [Compound 59, pGlu-His-Trp-Ser-Tyr-D-Bhi-Leu-Tyr-Pro-NHEt] ([pGlu]HWSY[dHis(τ-Bn)]LYP-NHEt) | 4 | 85 | –
11 | CCNC(=O)[C@@H]1CCCN1C(=O)[C@H](Cc1ccc(O)cc1)NC(=O)[C@H](Cc1c[nH]c2ccccc12)NC(=O)[C@@H](COC(C)(C)C)NC(=O)[C@H](Cc1c[nH]cn1)NC(=O)[C@H](CO)NC(=O)[C@H](Cc1c[nH]c2ccccc12)NC(=O)[C@H](Cc1c[nH]cn1)NC(=O)[C@@H]1CCC(=O)N1 [Compound 13, pGlu-His-Trp-Ser-His-D-Ser(tBu)-Trp-Tyr-Pro-NHEt] ([pGlu]HWSH[dS](tBu)WYP-NHEt) | 3 | 87 | –
12 | NC(=O)CNC(=O)[C@@H]1CCCN1C(=O)[C@H](Cc1ccc(O)cc1)NC(=O)[C@H](Cc1c[nH]c2ccccc12)NC(=O)[C@@H](Cc1c[nH]c2ccccc12)NC(=O)[C@H](Cc1ccc(O)cc1)NC(=O)[C@H](CO)NC(=O)[C@H](Cc1c[nH]c2ccccc12)NC(=O)[C@H](Cc1c[nH]cn1)NC(=O)[C@@H]1CCC(=O)N1 [Compound 64, pGlu-His-Trp-Ser-Tyr-D-Trp-Trp-Tyr-Pro-Gly-amide] ([pGlu]HWSY[dW]WYPG-NH2) | 5 | 50 | –
13 | CC(C)C[C@H](NC(=O)[C@@H](Cc1ccc2ccccc2c1)NC(=O)[C@H](Cc1ccc(O)cc1)NC(=O)[C@H](CO)NC(=O)[C@H](Cc1c[nH]c2ccccc12)NC(=O)[C@H](Cc1c[nH]cn1)NC(=O)[C@@H]1CCC(=O)N1)C(=O)N[C@@H](CCCNC(=N)N)C(=O)N1CCC[C@H]1C(=O)NCC(N)=O [Nafarelin, nafarelin, reference compound] | – | – | 100 (n = 2) percentage
14 | CCNC(=O)[C@@H]1CCCN1C(=O)[C@H](Cc1ccc(O)cc1)NC(=O)[C@H](Cc1c[nH]c2ccccc12)NC(=O)[C@@H](CC(C)C)NC(=O)[C@H](Cc1ccc(O)cc1)NC(=O)[C@H](CO)NC(=O)[C@H](Cc1c[nH]c2ccccc12)NC(=O)[C@H](Cc1c[nH]cn1)NC(=O)[C@@H]1CCC(=O)N1 [Compound 49, pGlu-His-Trp-Ser-Tyr-D-Leu-Trp-Tyr-Pro-NHEt] ([pGlu]HWSY[dL]WYP-NHEt) | 4 | 77 | –
15 | CCNC(=O)[C@@H]1CCCN1C(=O)[C@H](Cc1ccc(O)cc1)NC(=O)[C@H](CC(C)C)NC(=O)[C@@H](COC(C)(C)C)NC(=O)[C@H](Cc1ccc(O)cc1)NC(=O)[C@H](CO)NC(=O)[C@H](Cc1c[nH]c2ccccc12)NC(=O)[C@H](Cc1c[nH]cn1)NC(=O)[C@@H]1CCC(=O)N1 [Compound 9, pGlu-His-Trp-Ser-Tyr-D-Ser(tBu)-Leu-Tyr-Pro-NHEt] ([pGlu]HWSY[dS](tBu)LYP-NHEt) | 1 | 78 | –
16 | CCNC(=O)[C@@H]1CCCN1C(=O)[C@H](Cc1ccc(O)cc1)NC(=O)[C@H](CC(C)C)NC(=O)[C@@H](COC(C)(C)C)NC(=O)[C@H](Cc1c[nH]cn1)NC(=O)[C@H](CO)NC(=O)[C@H](Cc1c[nH]c2ccccc12)NC(=O)[C@H](Cc1c[nH]cn1)NC(=O)[C@@H]1CCC(=O)N1 [Compound 11, pGlu-His-Trp-Ser-His-D-Ser(tBu)-Leu-Tyr-Pro-NHEt] ([pGlu]HWSH[dS](tBu)LYP-NHEt) | 1 | 76 | –
17 | CCNC(=O)[C@@H]1CCCN1C(=O)[C@H](CCCNC(=N)N)NC(=O)[C@H](Cc1c[nH]c2ccccc12)NC(=O)[C@@H](Cc1cn(Cc2ccccc2)cn1)NC(=O)[C@H](Cc1c[nH]cn1)NC(=O)[C@H](CO)NC(=O)[C@H](Cc1c[nH]c2ccccc12)NC(=O)[C@H](Cc1c[nH]cn1)NC(=O)[C@@H]1CCC(=O)N1 [Compound 60, pGlu-His-Trp-Ser-His-D-Bhi-Trp-Arg-Pro-NHEt] ([pGlu]HWSH[dHis(τ-Bn)]WRP-NHEt) | 2 | 102 | –

Source: patent US11564969B2, “Immunorhelin compounds for intracellular infections” (ISR IMMUNE SYSTEM REGULATION HOLDING AB (PUBL), priority 2017, dated 2023)
